Tests used:
phospho-p68 = target: T1, phospho-p68 (Homo sapiens, UniProt P17844); test: β-catenin dependent ATPase assay; type: biochemical
T1 construct: made in house
Procedure: (§1) ATPase activity was determined by measuring the released inorganic phosphate during ATP hydrolysis using a direct colorimetric assay (Shin et al., Cancer Res., 67:7572-7578 (2007); Yang et. al., Cell, 127:139-155 (2006)). A typical ATPase assay was carried out in 50 μl reaction volumes, containing 20 mM Tris-HCl pH 7.5, 200 mM NaCl, 1 mM MgCl2, 5 mM DTT, ˜1-2 of appropriate substrate, 4 mM ATP, and 10 μl of helicase. The ATPase reactions were incubated at 37° C. for 30 minutes. After incubation, 1 ml of malachitegreen-molybdenum reagent was added to the reaction mixture, and reactions were further incubated at room temperature for exactly 5 minutes. The absorption (A) at 630 nm was then measured. The concentrations of inorganic phosphate were determined by matching the A630nm in a standard curve of A630nm vs. known phosphate concentrations. The proteins, p68 or phospho-p68, used for this assay were prepared in-house similar to the procedure reported previously (Yang et al., Protein Expr. Purif., 35:327-333 (2004)). The percentage of inhibition by defining the ATPase activity of phospho-p68 without RX-5902 as zero percent inhibition was calculated and IC50 of RX-5902 was calculated by non-linear regression analysis using Kaledia Graph software program (Synergy Software, Reading, Pa.).
The experiment was repeated at lower concentrations of RX-5902 to calculate IC50.

p68 RNA helicase = target: T2, p68 RNA helicase (Homo sapiens, UniProt P17844); test: RNA-dependent ATPase assay; type: biochemical; conditions: total RNA extracted from yeast
T2 construct: made in house
T2 sequence (P17844 whole entry): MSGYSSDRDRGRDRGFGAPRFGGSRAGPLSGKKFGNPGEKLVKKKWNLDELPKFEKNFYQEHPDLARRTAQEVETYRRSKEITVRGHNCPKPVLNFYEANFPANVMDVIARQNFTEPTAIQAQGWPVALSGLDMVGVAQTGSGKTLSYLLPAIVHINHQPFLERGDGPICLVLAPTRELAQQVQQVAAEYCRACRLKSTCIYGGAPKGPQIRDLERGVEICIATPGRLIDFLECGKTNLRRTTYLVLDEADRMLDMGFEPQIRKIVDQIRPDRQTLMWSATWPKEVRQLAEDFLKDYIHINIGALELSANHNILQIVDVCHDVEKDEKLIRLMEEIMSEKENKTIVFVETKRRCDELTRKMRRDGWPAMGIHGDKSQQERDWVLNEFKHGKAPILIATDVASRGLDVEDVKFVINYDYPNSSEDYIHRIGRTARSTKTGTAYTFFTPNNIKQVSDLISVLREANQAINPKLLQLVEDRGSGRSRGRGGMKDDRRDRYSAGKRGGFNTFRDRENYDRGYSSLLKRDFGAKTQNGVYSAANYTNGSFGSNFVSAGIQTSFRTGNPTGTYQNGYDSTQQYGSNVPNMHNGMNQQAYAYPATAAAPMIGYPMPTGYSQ
Procedure: as §1, with “The proteins, p68 or phospho-p68, used for this assay were prepared in-house similar to the procedure reported previously (Yang et al., Protein Expr. Purif., 35:327-333 (2004)).” left out
The effect of RX-5902 on ATPase activity of p68 was investigated. To do this, ATPase activity of recombinant p68 in the presence of RX-5902 and total RNA extracted from yeast were measured.

[1] = system: CYP450 isozymes 1A2, 2A6, 2B6, 2C8, 2C9, 2C19, 2D6; test: Loss of RX-5902 after incubation with other expressed CYP450 isozymes; type: in vitro ADME; conditions: 30-minute incubation with any other CYP isozyme
Procedure: Two in vitro studies were performed to examine the involvement of specific cytochrome P450 (CYP450) isozymes in the in vitro metabolism of RX-5902. In the first study, the loss of RX-5902 was measured after incubation with expressed CYP450 isozymes (1A2, 2A6, 2B6, 2C8, 2C9, 2C19, 2D6, 3A4 and 3A5). […] In the second study, RX-5902 was incubated with pooled human liver microsomes in the presence of CYP450 isozyme-selective chemical inhibitors. The inhibitors tested were selective for 1A2, 2A6, 2B6, 2C8, 2C9, 2C19, 2D6, and 3A4/5.

MDA-MB-231 cells = test: Cytotoxicity of RX-5902 after p68 knock-down with p68-siRNA; type: cell-based, human; conditions: IC50 concentration of RX-5902
Y593 phospho-p68 = target: T3, Y593 phospho-p68 (Homo sapiens, UniProt P17844); test: Filter binding assay with 3H-labeled RX-5902; conditions: estimated by 50% of p68 bound to RX-5902
T3 construct: purchased Origene (Rockville, Md.)
T3 sequence (P17844 whole entry): as above
Procedure: (§2) Recombinant β-catenin was used without further treatment whereas recombinant p68 protein was either used as p68 or phosphorylated by c-Abl for filter binding assay. Recombinant c-Abl was obtained from Abeam (Cambridge, Mass.).
(§3) Filter binding studies have been previously described elsewhere (Coombs et al., Proc. Natl. Acad. Sci. USA, 75:5291-5295 (1978). Briefly, recombinant p68 RNA helicase with/without tyrosine phosphorylation was added to the ^3H-labeled RX-5902 (10 Ci/mmol) with PBS. ^3H-labeled RX-5902 was synthesized from Quotient Bioresearch (Cardiff, UK). After incubation at room temperature for 30 minutes, the binding mixtures were loaded onto a nitrocellulose membrane. The membrane was washed five times with PBS, and then dried by vacuum. The amounts of RX-5902 bound to p68 with/without phosphorylation of p68 were determined by ^3H scintillation counting. The same procedure was done with ^3H-labeled RX-5902 alone without addition of p68 RNA helicase and sample p68 RNA helicase alone without addition of the ^3H-labeled RX-5902 as background ^3H scintillation counting. The binding percentages of p68 to the compound were calculated and plotted against concentrations. The dissociation constant (Kd) was estimated by the concentration at 50% of p68 bound to RX-5902 and calculated by linear regression analysis.

unphosphorylated p68 = target: T4, unphosphorylated p68 (Homo sapiens, UniProt P17844); test: Filter binding assay with 3H-labeled RX-5902; conditions: filter binding studies
T4 construct: purchased Origene (Rockville, Md.)
T4 sequence (P17844 whole entry): as above
Procedure: as §2, §3

[2] = Solid state characterisation of Form 1; type: physicochemical; conditions: crystalline solid
From the text: A batch of RX-5902 was characterized by various solid state techniques. The supplied material was a crystalline solid, denoted as Form 1.

T1 sequence (P17844 whole entry): as above

With COc1cc(OC)cc(N2CCN(C(=O)Nc3nc4cc(F)ccc4nc3OC)CC2)c1 [RX-5902, 4-(3,5-dimethoxyphenyl)-N-(7-fluoro-3-methoxyquinoxalin-2-yl)piperazine-1-carboxamide] the “β-catenin dependent ATPase activity” value (phospho-p68; 0.2 μM) was “largely diminished”, the IC50 (phospho-p68; read-out: IC50 for the inhibition of β-catenin dependent ATPase activity) was 61 nM and the “effect on RNA-dependent ATPase activity” value (p68 RNA helicase; 0.2 μM) was “did not affect”. For the same compound, the “inhibition of RNA-dependent ATPase activity” value (p68 RNA helicase; 20 μM) was “less than 30%”, the “loss of RX-5902” value [1] was “little loss” and the “cytotoxic effect in p68-siRNA-transfected cells” value (MDA-MB-231 cells) was “protected MDA-MB-231 cells from the cytotoxic effects”. For the same compound, the Kd (Y593 phospho-p68) was roughly 19 nM, the “interaction with unphosphorylated p68” value (unphosphorylated p68) was “did not interact” and the hygroscopicity [2] was “non-hygroscopic”. For the same compound, the stability to humidity [2] was “stable to exposure to humidity”.

From patent publication US9969698B2, “Quinoxalinyl-piperazinamide methods of use” (REXAHN PHARMACEUTICALS, INC., priority 2015, dated 2018)
